According to patent publication US20120302530A1, “23-HYDROXY-BETULINIC ACID DERIVATIVES, PREPARATION METHODS AND USES THEREOF” (priority 2009, published 2012):
Where two headings read alike, the source gives them in different places.

How the values were obtained:
[1] = tested on: 786-O; test: MTT cytotoxicity, human tumor cell strain; type: cell-based; settings: 786-0, Kidney, 72 hours
Source text: (§1) We use human tumor cell lines to conduct cytotoxicity analysis. Thirty-one (31) kinds of human tumor cell strains are cultivated in the normal culture medium containing various compounds of zhangnan-5, zhangnan-7 and zhangnan-8. The human tumor lines are bought from ATCC and NCI, and is cultivated with DMEM culture solution containing 10% FBS in 370C couveuse containing 5% CO2. The merged cells are digested by trypsinase, and are counted after washed by the culture solution. 3000˜6000 cells are added into each hole of the 96-hole culture plate, and are hatched for 16 hours or 24 hours. Then, compounds zhangnan-5, zhangnan-7 and zhangnan-8 with different concentrations are added into the holes. Upon further cultivated for another 72 hours, MTT tests are conducted to cells in group treated with drugs and the control group cells, to determine the survival condition of the cells.

[2] = tested on: A549; test: MTT cytotoxicity, human tumor cell strain; type: cell-based; settings: A549, Lung, 72 hours
Source text: as §1

[3] = tested on: ACHN; test: MTT cytotoxicity, human tumor cell strain; type: cell-based; settings: Kidney, 72 hours
Source text: as §1

[4] = tested on: AU-565; test: MTT cytotoxicity, human tumor cell strain; type: cell-based; settings: AU565, AU-565, Mammary Gland, 72 hours
Source text: as §1

[5] = tested on: BT-549; test: MTT cytotoxicity, human tumor cell strain; type: cell-based; settings: BT-549, Mammary Gland, 72 hours
Source text: as §1

[6] = tested on: CCL-225; test: MTT cytotoxicity, human tumor cell strain; type: cell-based; settings: CCL-225, Colon, 72 hours
Source text: as §1

[7] = tested on: CCL-247; test: MTT cytotoxicity, human tumor cell strain; type: cell-based; settings: CCL-247, Colo, 72 hours
Source text: as §1

[8] = tested on: CNE-2Z; test: MTT cytotoxicity, human tumor cell strain; type: cell-based; settings: CNE2Z, Nasopharynx, 72 hours
Source text: as §1

[9] = tested on: Caki-1; test: MTT cytotoxicity, human tumor cell strain; type: cell-based; settings: Caki-1, Kidney, 72 hours
Source text: as §1

[10] = tested on: D145; test: MTT cytotoxicity, human tumor cell strain; type: cell-based; settings: D145, Prostate, 72 hours
Source text: as §1

[11] = tested on: EC109; test: MTT cytotoxicity, human tumor cell strain; type: cell-based; settings: ECa-109, EC109, Esophagus, 72 hours
Source text: as §1

[12] = tested on: G-361; test: MTT cytotoxicity, human tumor cell strain; type: cell-based; settings: G-361, Skin (melanoma), 72 hours
Source text: as §1

[13] = tested on: HCT-116; test: MTT cytotoxicity, human tumor cell strain; type: cell-based; settings: HCT-116, Colon, 72 hours
Source text: as §1

[14] = tested on: HT29; test: MTT cytotoxicity, human tumor cell strain; type: cell-based; settings: HT-29, HT29, Colon, 72 hours
Source text: as §1

[15] = tested on: IGROV1; test: MTT cytotoxicity, human tumor cell strain; type: cell-based; settings: IGROV-1, IGROV1, Ovary, 72 hours
Source text: as §1

[16] = tested on: Jurkat; test: MTT cytotoxicity, human tumor cell strain; type: cell-based; settings: Leukemia T Cell, 72 hours
Source text: as §1

[17] = tested on: LnCAP; test: MTT cytotoxicity, human tumor cell strain; type: cell-based; settings: Prostate, 72 hours
Source text: as §1

[18] = tested on: LoVo; test: MTT cytotoxicity, human tumor cell strain; type: cell-based; settings: Colon, 72 hours
Source text: as §1

[19] = tested on: MCF-7; test: MTT cytotoxicity, human tumor cell strain; type: cell-based; settings: MCF7, MCF-7, Mammary Gland, 72 hours
Source text: as §1

[20] = tested on: MDA-MB-231; test: MTT cytotoxicity, human tumor cell strain; type: cell-based; settings: MDA-MB-231, Mammary Gland, 72 hours
Source text: as §1

[21] = tested on: MDA-MB-435; test: MTT cytotoxicity, human tumor cell strain; type: cell-based; settings: MDA-MB-435, Mammary Gland, 72 hours
Source text: as §1

[22] = tested on: Mid PaCa-2; test: MTT cytotoxicity, human tumor cell strain; type: cell-based; settings: Mid PaCa-2, Pancreatic Gland, 72 hours
Source text: as §1

[23] = tested on: NCI-H23; test: MTT cytotoxicity, human tumor cell strain; type: cell-based; settings: NCI-H23, Lung, 72 hours
Source text: as §1

[24] = tested on: PC3; test: MTT cytotoxicity, human tumor cell strain; type: cell-based; settings: PC-3, PC3, Prostate, 72 hours
Source text: as §1

[25] = tested on: Raji; test: MTT cytotoxicity, human tumor cell strain; type: cell-based; settings: Lymphoma, 72 hours
Source text: as §1

[26] = tested on: SGC-7901; test: MTT cytotoxicity, human tumor cell strain; type: cell-based; settings: SGC-7901, Stomach, 72 hours
Source text: as §1

[27] = tested on: SK-MEL-5; test: MTT cytotoxicity, human tumor cell strain; type: cell-based; settings: SK-MEL-5, Skin (melanoma), 72 hours
Source text: as §1

[28] = tested on: SKOV3; test: MTT cytotoxicity, human tumor cell strain; type: cell-based; settings: SK-OV-3, SKOV3, Ovary, 72 hours
Source text: as §1

[29] = tested on: SN12C; test: MTT cytotoxicity, human tumor cell strain; type: cell-based; settings: Kidney, 72 hours
Source text: as §1

[30] = tested on: U-251; test: MTT cytotoxicity, human tumor cell strain; type: cell-based; settings: U-251, Malignant Glioma, 72 hours
Source text: as §1

[31] = tested on: Widr; test: MTT cytotoxicity, human tumor cell strain; type: cell-based; settings: Colon, 72 hours
Source text: as §1

[32] = tested on: C8166 (human T cell line); test: Toxicity to C8166 cells (MTT, day 7); type: cell-based; settings: Homo sapiens, read-out: IC50 (50% inhibition concentration) to C8166 cell
Procedure: (§2) (2) Toxicity of compounds zhangnan-5, zhangnan-7 and zhangnan-8 to C8166 and PBMC cells:
(§3) C8166 (human T cell line) and PBM (using lymphocyte isolation liquid to separate from normal human peripheral blood, and adhered mononuclear cell separated from PBMC) cells in exponential phase are taken. The cells are resuspended after centrifugal (1000 r•min-1, 10 min), and the concentrations are adjusted to 4×10^5/ml and 2×10^6/ml. The test samples are double diluted on the 96-hole cell culture plate. In total 6 gradients are set, each having 3 duplicate holes. In addition, positive control group and cell control group are set. Upon adding cell suspended liquid, the test samples are placed in incubator of 370C and 5% CO2 for incubation. On the seventh (7th) day, MTT method is used to determine toxicity of the samples to cells.
(§4) Inhibition ratio of cell growth (%)=(1−experimental hole OD value/control hole (OD value)×100%

[33] = tested on: normal person PBMC; test: Toxicity to PBMC cells (MTT, day 7); type: cell-based, human; settings: Homo sapiens, 168 h, day 7, MTT
Procedure: as §2, §3, §4

For C=C(C)C1CCC2(C(=O)O)CCC3(C)C(CCC4C5(C)CCC(=O)C(C)(CO)C5CCC43C)C12 (stereo not drawn) [zhangnan-5], the EC50 [1] was 3.1 µM, the EC50 [2] was 0.54 µM and the EC50 [3] was 1.2 µM. For the same molecule, the EC50 [4] was 0.59 µM, the EC50 [5] was 0.67 µM and the EC50 [6] was 0.23 µM. It also gave an EC50 [7] of 0.52 µM, an EC50 [8] of 1.3 µM and an EC50 [9] of 0.98 µM. It also gave an EC50 [10] of 0.85 µM, an EC50 [11] of 0.78 µM and an EC50 [12] of 0.087 µM. The EC50 [13] was 0.09 µM, the EC50 [14] was 0.47 µM and the EC50 [15] was 2.1 µM. It also gave an EC50 [16] of 0.14 µM, an EC50 [17] of 0.69 µM and an EC50 [18] of 0.15 µM. For the same molecule, the EC50 [19] was 0.58 µM, the EC50 [20] was 0.47 µM and the EC50 [21] was 0.55 µM. For the same molecule, the EC50 [22] was 0.93 µM, the EC50 [23] was 0.32 µM and the EC50 [24] was 0.91 µM. It also gave an EC50 [25] of 0.098 µM, an EC50 [26] of 0.89 µM and an EC50 [27] of 0.093 µM. For the same molecule, the EC50 [28] was 1.5 µM, the EC50 [29] was 1.3 µM and the EC50 [30] was 0.089 µM. The EC50 [31] was 0.28 µM, the IC50 ([32]; C8166, 168 h) was 2.3 ± 0.47 µM and the IC50 [33] was 2.4 ± 0.38 µM.
In the case of CC(C)C1CCC2(C(=O)O)CCC3(C)C(CCC4C5(C)CCC(=O)C(C)(CO)C5CCC43C)C12 (stereo not drawn) [zhangnan-7], the EC50 [1] is reported as 16.8 µM, the EC50 [2] is reported as 13.1 µM and the EC50 [3] is reported as 18.3 µM. It also gave an EC50 [4] of 18.2 µM, an EC50 [5] of 17.4 µM and an EC50 [6] of 16.1 µM. For the same molecule, the EC50 [7] was 15.6 µM, the EC50 [8] was 19.2 µM and the EC50 [9] was 20.1 µM. The EC50 [10] was 14.8 µM, the EC50 [11] was 17.9 µM and the EC50 [12] was 19.3 µM. For the same molecule, the EC50 [13] was 15.1 µM, the EC50 [14] was 13.9 µM and the EC50 [15] was 17.4 µM. For the same molecule, the EC50 [16] was 21.3 µM, the EC50 [17] was 15.6 µM and the EC50 [18] was 15.2 µM. The EC50 [19] was 16.9 µM, the EC50 [20] was 17.5 µM and the EC50 [21] was 19.3 µM. The EC50 [22] was 18.9 µM, the EC50 [23] was 12.8 µM and the EC50 [24] was 16.2 µM. For the same molecule, the EC50 [25] was 20.5 µM, the EC50 [26] was 18.5 µM and the EC50 [27] was 18.5 µM. The EC50 [28] was 16.9 µM, the EC50 [29] was 17.5 µM and the EC50 [30] was 17.8 µM. It also gave an EC50 [31] of 14.8 µM, an IC50 ([32]; 168 h, C8166, day 7, MTT) of 25 ± 5.2 µM and an IC50 [33] of 25.8 ± 4.9 µM.
CC(C)C1CCC2(C(=O)O)CCC3(C)C(CCC4C5(C)CCC(O)C(C)(CO)C5CCC43C)C12 (stereo not drawn) [zhangnan-8, 23-hydroxyl-dihydrobetulinic acid] was tested, and the EC50 [1] was 8.1 µM, the EC50 [2] was 6.9 µM and the EC50 [3] was 8.9 µM. For the same molecule, the EC50 [4] was 6.8 µM, the EC50 [5] was 7.4 µM and the EC50 [6] was 8.6 µM. It also gave an EC50 [7] of 8.2 µM, an EC50 [8] of 10.2 µM and an EC50 [9] of 9.2 µM. The EC50 [10] was 8.4 µM, the EC50 [11] was 9.5 µM and the EC50 [12] was 5.3 µM. For the same molecule, the EC50 [13] was 7.8 µM, the EC50 [14] was 8.9 µM and the EC50 [15] was 7.2 µM. It also gave an EC50 [16] of 7.1 µM, an EC50 [17] of 7.8 µM and an EC50 [18] of 9.6 µM. It also gave an EC50 [19] of 7.8 µM, an EC50 [20] of 7.2 µM and an EC50 [21] of 7.9 µM. The EC50 [22] was 9.4 µM, the EC50 [23] was 6.7 µM and the EC50 [24] was 8.9 µM. For the same molecule, the EC50 [25] was 6.9 µM, the EC50 [26] was 8.9 µM and the EC50 [27] was 4.9 µM. For the same molecule, the EC50 [28] was 6.9 µM, the EC50 [29] was 7.6 µM and the EC50 [30] was 5.6 µM. It also gave an EC50 [31] of 8.1 µM, an IC50 ([32]; 168 h, C8166, day 7, MTT) of 10.3 ± 2.9 µM and an IC50 [33] of 11.6 ± 3.5 µM.
